The record followed here is ChEMBL document CHEMBL3576793, “Restoration of Chemosensitivity in P-Glycoprotein-Dependent Multidrug-Resistant Cells by Dihydro-β-agarofuran Sesquiterpenes from Celastrus vulcanicola” (J Nat Prod, 2015).

Data set [1] deals with T1, ATP-dependent translocase ABCB1 (Homo sapiens, UniProt P08183). The experiment in a line: Inhibition of human MDR1 transfected in mouse NIH/3T3 MDR1-G185 cells assessed as daunomycin accumulation at 10 uM after 30 mins by flow cytometry (reference value: 13.2 +/- 1.1%). The data set is classed as cell-based. Set-up: scale not given: the % may be the effect or the level left. The following applies: nih/3t3 mdr1-g185, 0.5 h. On the technique in general: A flow cytometer gives signals particle by particle.
T1 sequence (P08183 whole entry): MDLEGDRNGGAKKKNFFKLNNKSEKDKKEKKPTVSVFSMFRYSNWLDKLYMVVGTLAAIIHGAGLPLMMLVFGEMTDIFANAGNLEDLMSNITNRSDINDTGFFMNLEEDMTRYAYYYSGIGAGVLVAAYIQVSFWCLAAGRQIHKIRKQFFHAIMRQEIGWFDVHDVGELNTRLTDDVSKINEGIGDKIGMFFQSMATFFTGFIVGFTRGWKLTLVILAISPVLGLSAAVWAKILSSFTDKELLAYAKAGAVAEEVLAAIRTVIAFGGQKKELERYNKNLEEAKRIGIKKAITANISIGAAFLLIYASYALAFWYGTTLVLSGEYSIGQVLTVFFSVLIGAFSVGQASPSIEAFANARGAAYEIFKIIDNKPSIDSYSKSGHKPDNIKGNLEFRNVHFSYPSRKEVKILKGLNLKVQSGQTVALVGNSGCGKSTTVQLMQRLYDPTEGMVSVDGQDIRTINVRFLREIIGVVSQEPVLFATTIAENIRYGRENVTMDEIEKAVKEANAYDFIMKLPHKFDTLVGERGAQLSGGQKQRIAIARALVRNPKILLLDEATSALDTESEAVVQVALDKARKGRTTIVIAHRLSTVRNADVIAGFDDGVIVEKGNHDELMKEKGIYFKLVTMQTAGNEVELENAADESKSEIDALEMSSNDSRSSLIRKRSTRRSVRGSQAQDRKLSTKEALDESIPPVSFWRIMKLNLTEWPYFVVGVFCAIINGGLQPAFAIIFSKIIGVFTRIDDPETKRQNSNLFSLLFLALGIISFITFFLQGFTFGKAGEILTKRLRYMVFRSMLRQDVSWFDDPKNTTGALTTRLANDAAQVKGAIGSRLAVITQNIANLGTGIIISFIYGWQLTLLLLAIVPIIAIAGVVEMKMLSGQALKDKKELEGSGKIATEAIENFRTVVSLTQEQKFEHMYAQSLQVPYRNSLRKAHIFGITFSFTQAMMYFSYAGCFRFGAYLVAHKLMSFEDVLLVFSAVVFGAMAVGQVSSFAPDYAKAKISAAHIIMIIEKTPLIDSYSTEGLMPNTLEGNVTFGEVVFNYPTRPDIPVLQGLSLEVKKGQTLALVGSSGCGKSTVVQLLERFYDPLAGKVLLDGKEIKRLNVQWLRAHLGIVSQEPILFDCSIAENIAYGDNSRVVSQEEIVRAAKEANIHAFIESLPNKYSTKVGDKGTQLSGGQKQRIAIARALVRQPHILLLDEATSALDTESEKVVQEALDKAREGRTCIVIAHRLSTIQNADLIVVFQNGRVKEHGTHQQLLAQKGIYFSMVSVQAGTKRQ

For data set [2], the target named is T1, ATP-dependent translocase ABCB1. The data set can be described thus: Inhibition of human MDR1 transfected in mouse NIH/3T3 MDR1-G185 cells assessed as […] daunomycin accumulation after 30 mins by flow cytometry. Format: cell-based.
A short description of data set [3]: Cytotoxicity against mouse NIH/3T3 cells assessed as cell growth at 10 uM after 24 hrs by MTT assay. The following applies: read-out: Activity. The data set is classed as cell-based, NIH3T3.
The nature of data set [4]: Cytotoxicity against human MDR1 transfected mouse NIH/3T3 MDR1-G185 cells assessed as cell growth at 10 uM after 24 hrs by MTT assay. The data set is classed as ADME, cell-based, NIH3T3. The following applies: mouse NIH/3T3 MDR1-G185 cells transfected with human MDR1, read-out: Activity. On the technique in general: Formazan colour is commonly taken as a measure of viable cells.

`CC(=O)OC[C@]12[C@@H](OC(=O)c3ccccc3)[C@@H](O)[C@@H]3[C@@H](OC(C)=O)[C@]1(OC3(C)C)[C@@](C)(O)C[C@H](OC(=O)c1ccccc1)[C@@H]2OC(C)=O`: the Activity in data set [1] was 73.2%.

Regarding `CC(=O)O[C@H]1[C@@H](OC(=O)c2ccccc2)C[C@@H](C)[C@]23OC(C)(C)[C@H](C[C@H](OC(=O)c4ccccc4)[C@]12C)[C@H]3OC(=O)c1cccnc1`, the Activity in data set [1] worked out at 80.1%. The Ki – broadly, a dissociation constant, usually derived from enzyme kinetics or from competition with a known ligand – in data set [2] is 290 nM. Also, the figures for the viability at 24 h, 10 µM in data set [3] and in data set [4] were 75.4% and 70.2%, respectively.

With `CC(=O)OC[C@]12[C@@H](OC(=O)c3ccccc3)[C@@H](OC(C)=O)[C@@H]3C[C@]1(OC3(C)C)[C@H](C)C[C@H](OC(C)=O)[C@@H]2OC(C)=O`, in data set [1], the Activity is given as 68.2%.

Turning to `COc1ccc(CCN(C)CCCC(C#N)(c2ccc(OC)c(OC)c2)C(C)C)cc1OC` (configuration not stated), in data set [1], the Activity was determined as 60.3%. The viability at 24 h, 10 µM in data set [4] turned out to be 80.8%.

Take `CC(=O)OC[C@]12[C@@H](OC(=O)c3ccccc3)[C@@H](OC(C)=O)[C@@H]3[C@@H](OC(C)=O)[C@]1(OC3(C)C)[C@@](C)(O)C[C@H](OC(=O)c1ccccc1)[C@@H]2OC(C)=O`: in data set [1], the Activity amounted to 73.8%.

Turning to `CC(=O)OC[C@]12[C@@H](OC(=O)c3ccccc3)C[C@@H]3[C@@H](OC(C)=O)[C@]1(OC3(C)C)[C@@](C)(O)C[C@H](OC(=O)c1ccccc1)[C@@H]2OC(C)=O`, the Activity in data set [1] turned out to be 73.6%.

In the case of `CC(=O)OC[C@]12[C@@H](OC(=O)c3ccccc3)[C@@H](OC(C)=O)[C@@H]3[C@@H](OC(=O)c4ccccc4)[C@]1(OC3(C)C)[C@@](C)(O)C[C@H](OC(C)=O)[C@@H]2OC(C)=O`, in data set [1], the Activity was determined as 79.7%. Also, the Ki in data set [2] came out at 780 nM. Besides, the viability at 24 h, 10 µM in data set [3] stood at 64.4%; in data set [4], 71.4%.

As to `CC(=O)O[C@H]1[C@@H](OC(=O)c2ccccc2)[C@]2(C)[C@@H](O)[C@@H](OC(C)=O)C[C@](C)(O)[C@@]23C[C@@H]1C(C)(C)O3`, in data set [1], the Activity is listed as 37%.

With `CC(=O)OC[C@@]12[C@@H](OC(C)=O)CC[C@](C)(O)[C@]13OC(C)(C)[C@H](C[C@@H]2OC(=O)c1ccccc1)[C@H]3OC(C)=O`, the Activity in data set [1] stood at 72.4%.

As to `CC(=O)O[C@H]1[C@@H]2[C@@H](OC(=O)c3ccccc3)[C@@]3(OC2(C)C)[C@@](C)([C@@H](O)[C@@H](OC(C)=O)C[C@]3(C)O)[C@H]1OC(=O)c1ccccc1`, the Activity in data set [1] worked out at 73.1%.

For `CC(=O)OC[C@]12[C@@H](OC(=O)c3ccccc3)[C@@H](OC(C)=O)[C@@H]3[C@@H](OC(C)=O)[C@]1(OC3(C)C)[C@@](C)(O)C[C@H](OC(C)=O)[C@@H]2OC(C)=O`, the Activity in data set [1] came out at 69.9%.

Turning to `CC(=O)O[C@H]1CC[C@](C)(O)[C@]23OC(C)(C)[C@H]([C@H](OC(=O)/C=C\c4ccccc4)[C@H](OC(=O)c4ccccc4)[C@]12C)[C@H]3OC(C)=O`, in data set [1], the Activity worked out at 82.2%. Further, in data set [2], the Ki is 610 nM. Further, the results for the viability at 24 h, 10 µM in data set [3] and in data set [4] were 51.4% and 64.3%, respectively.

Consider `CC(=O)O[C@H]1C[C@](C)(O)[C@]23OC(C)(C)[C@H]([C@H](OC(=O)/C=C/c4ccccc4)[C@H](OC(=O)c4ccccc4)[C@]2(C)[C@H]1OC(C)=O)[C@H]3O`, for which the Activity in data set [1] came to 85.1%. In addition, the Ki in data set [2] was 420 nM. Besides, the figures for the viability at 24 h, 10 µM in data set [3] and in data set [4] were 69% and 78.4%, respectively.

In the case of `CC(=O)O[C@@H]1[C@@H]2[C@@H](OC(=O)c3ccccc3)[C@@]3(OC2(C)C)[C@](C)([C@@H]1OC(=O)c1ccccc1)[C@@H](OC(C)=O)[C@@H](O)C[C@]3(C)O`, in data set [1], the Activity stood at 73.2%.
